Test results from ChEMBL document CHEMBL5385875, “Tumor killing by a dietary curcumin mono-carbonyl analog that works as a selective ROS generator via TrxR inhibition” (Eur J Med Chem, 2023).
Activity calls are given as the source filed them. No cut-off for these calls is given here.

Legend:
A549 = test: Cytotoxicity against human A549 cells assessed as reduction in cell viability incubated for 48 hrs by MTT assay; format: functional, cell-based; conditions: A549, 48 h
NCI-H460 [1] = test: Induction of ROS accumulation in human NCI-H460 cells assessed as reduction in GSH levels by measuring yellow green fluorescence incubated for 9 hrs by fluorescence microscope based analysis; format: functional, cell-based
NCI-H460 [2] = test: Induction of intracellular ROS accumulation in human NCI-H460 cells at 2 uM measured after 6 hrs by DCFH-DA dye based fluorescence assay; format: functional, cell-based
HepG2 = test: Cytotoxicity against human HepG2 cells assessed as reduction in cell viability incubated for 48 hrs by MTT assay; format: functional, cell-based; conditions: HepG2, 48 h
[3] = target: Thioredoxin reductase (Homo sapiens) (UniProt Q16881+Q9NNW7+Q86VQ6); test: Inhibition of TrxR in human NCI-H460 cells at 2 uM measured after 6 hrs by fluorescence microscopy based analysis; format: cell-based
[4] = Cytotoxicity against human MRC5 cells assessed as reduction in cell viability incubated for 48 hrs by MTT assay; format: toxicity, cell-based
[5] = Selectivity index, ratio of IC50 for human MRC5 cells to IC50 for human NCI-H460 cells; format: toxicity; conditions: MRC5 cells versus NCI-H460 cells, read-out: Ratio IC50
HT-1080 = test: Cytotoxicity against human HT-1080 cells assessed as reduction in cell viability incubated for 48 hrs by MTT assay; format: functional, cell-based; conditions: HT-1080, 48 h
NCI-H460 [6] = test: Cytotoxicity against human NCI-H460 cells assessed as reduction in cell viability incubated for 48 hrs by MTT assay; format: functional, cell-based; conditions: NCI-H460, 48 h

| Compound | IC50 (A549) [µM] | Activity (NCI-H460 [1]) | Activity (NCI-H460 [2]) | IC50 (HepG2) [µM] | inhibition [3] | IC50 at 48 h [4] [µM] | selectivity ratio [5] | IC50 (HT-1080) [µM] | IC50 (NCI-H460 [6]) [µM] |
| --- | --- | --- | --- | --- | --- | --- | --- | --- | --- |
| COc1cc(/C=C/C(=O)CC(=O)/C=C/c2ccc(O)c(OC)c2)ccc1O [CURCUMIN] | 44.8 | inactive | inactive | 22.8 | inactive | 51.2 | 2.52 | 21.9 |  |
| COc1cccc(/C=C2\CNC/C(=C\c3cccc(OC)c3)C2=O)c1 | 14.3 |  | inactive | 5.19 |  | 9.11 | 1.23 | 20 | 7.93 |
| O=C1/C(=C/c2cccc(C(F)(F)F)c2)CCC/C1=C\c1cccc(C(F)(F)F)c1 | 3.96 |  |  | 3.54 |  | 21.9 | 3.62 | 6.34 | 6.06 |
| CN1C/C(=C\c2ccc(C(F)(F)F)cc2)C(=O)/C(=C/c2ccc(C(F)(F)F)cc2)C1 | 1.58 |  |  | 1.01 |  | 4.76 | 2.16 | 2.03 | 2.2 |
| O=C1/C(=C/c2ccccc2C(F)(F)F)CCC/C1=C\c1ccccc1C(F)(F)F | > 100 |  |  | > 100 |  | > 100 |  | > 100 | > 100 |
| COc1cccc(/C=C2\CCC/C(=C\c3cccc(OC)c3)C2=O)c1 | 11.6 |  |  | 14 |  | 46 | 2.81 | 22.2 | 16.4 |
| O=C1/C(=C/c2ccc(C(F)(F)F)cc2)CNC/C1=C\c1ccc(C(F)(F)F)cc1 | 2.02 |  | inactive | 37.1 |  | 8.65 | 1.22 | 5.48 | 7.11 |
| CN1C/C(=C\c2ccccc2)C(=O)/C(=C/c2ccccc2)C1 | 11.3 |  |  | 10.6 |  | 31.3 | 1.16 | 3.82 | 26.9 |
| O=C1/C(=C/c2ccccc2)CCC/C1=C\c1ccccc1 [2,6-DIBENZYLIDENECYCLOHEXANONE] | 26.3 |  |  | 28.5 |  | > 100 |  | 32.6 | 50.5 |
| COc1ccccc1/C=C1\CCC/C(=C\c2ccccc2OC)C1=O | 66.8 |  |  | 60.1 |  | > 100 |  | > 100 | 79.8 |
| O=c1[nH]cc(F)c(=O)[nH]1 [FLUOROURACIL] |  |  |  |  |  | 246 | 9.89 |  | 24.8 |
| CN1C/C(=C\c2cccc(C(F)(F)F)c2)C(=O)/C(=C/c2cccc(C(F)(F)F)c2)C1 | 1.08 |  |  | 1.12 |  | 9.25 | 3.15 | 3.86 | 2.94 |
| COc1cccc(/C=C2\CN(C)C/C(=C\c3cccc(OC)c3)C2=O)c1 | 1.18 |  |  | 1.36 |  | 13.4 | 2.37 | 1.99 | 5.68 |
| COc1ccccc1/C=C1\CNC/C(=C\c2ccccc2OC)C1=O | 3.32 |  | inactive | 1.93 |  | 3.67 | 1.27 | 35.9 | 2.88 |
| O=C1/C(=C/c2ccc(C(F)(F)F)cc2)CCC/C1=C\c1ccc(C(F)(F)F)cc1 | 2.97 |  |  | > 100 |  | 47.7 | 3.32 | 7.2 | 14.4 |
| COc1ccc(/C=C2\CNC/C(=C\c3ccc(OC)cc3)C2=O)cc1 | > 100 |  | inactive | > 100 |  | > 100 |  | > 100 | > 100 |
| COc1ccccc1/C=C1\CN(C)C/C(=C\c2ccccc2OC)C1=O | 6.81 |  |  | 10.7 |  | 17 | 2.03 | 9.62 | 8.39 |
| O=C1/C(=C/c2ccccc2)CNC/C1=C\c1ccccc1 | 7.36 | inactive | inactive | 1.38 | inactive | 4.85 | 2.07 | 5.41 | 2.34 |
| O=C1/C(=C/c2ccccc2C(F)(F)F)CNC/C1=C\c1ccccc1C(F)(F)F | > 100 |  | inactive | > 100 |  | > 100 |  | > 100 | > 100 |
| COc1ccc(/C=C2\CN(C)C/C(=C\c3ccc(OC)cc3)C2=O)cc1 | > 100 |  |  | > 100 |  | > 100 |  | > 100 | > 100 |
| CN1C/C(=C\c2ccccc2C(F)(F)F)C(=O)/C(=C/c2ccccc2C(F)(F)F)C1 | > 100 |  |  | > 100 |  | > 100 |  | 49.5 | > 100 |
| COc1ccc(/C=C2\CCC/C(=C\c3ccc(OC)cc3)C2=O)cc1 | > 100 |  |  | > 100 |  | > 100 |  | > 100 | > 100 |
| CC[C@@]1(O)C(=O)OCc2c1cc1n(c2=O)Cc2cc3ccccc3nc2-1 [CAMPTOTHECIN] |  |  |  |  |  | 9.02 | 11.4 |  | 0.79 |
